Measured values taken from patent publication US4731109A, “Herbicidal 2-haloacetanilides” (Monsanto Company, priority 1982, dated 1988).
Read-outs that look alike come from different tables or passages of the source.

Tests used:
Format in all cases: in vivo
cotton = assay: Greenhouse pre-emergence GR15/GR85 selectivity test; conditions: Table XII
Text: (§1) A good grade of top soil is placed in aluminum pans and compacted to a depth of three-eighths to one-half inch from the top of the pan. On the top of the soil is placed a number of seeds or vegetative propagules of various plant species. The soil required to level fill the pans after seeding or adding vegetative propagules is weighed into a pan. The soil and a known amount of the active ingredient applied in a solvent or as a wettable powder suspension are thoroughly mixed, and used to cover the prepared pans. After treatment, the pans are given an initial overhead irrigation of eater, equivalent to one-fourth inch (0.64 cm) rainfall, then watered by subirrigation as need to give adequate moisture for germination and growth. As an alternative procedure, the overhead irrigation may be omitted. Observations are made about 2-3 weeks after seeding and treatment.
(§2) In the discussion and tables of data below, reference is made to herbicide application rates symbolized as "GR15 " and "GR85 "; these rates are given in kilograms per hectare (kg/ha) which are convertible into pounds per acre (lbs/A) by dividing the kg/ha rate by 1.12.
A further guide to the effectiveness of a chemical as a selective herbicide is the "selectivity factor" ("SF") for a herbicide in given crops and weeds. The selectivity factor is a measure of the relative degree of crop safety and weed injury and is expressed in terms of the GR15 /GR85 ratio, i.e., the GR15 rate for the crop divided by the GR85 rate for the weed, both rates in kg/ha (lb/A). In the tables below, selectivity factors are shown in parenthesis following the GR85 rate for each weed; the symbol "NS" indicates "non-selective". Marginal or undetermined selectivity is indicated by a dash (--).
Additionally, pre-emergence herbicidal data from other tests have established that compounds according to this invention also selectively suppress quackgrass, yellow nutsedge and/or other weeds in one or more of the crops cotton, peanuts, bush beans and/or rape. For example, in Table VI are presented data showing the herbicidal selectivity of the compounds of Examples 1 and 2 against quackgrass in rape and snap beans. Unless otherwise noted; greenhouse tests in Table VI and in other tables below involved herbicide treatments by soil incorporation and an initial overhead irrigation followed by subirrigation as described above.
In one multi-crop test in the greenhouse, the compounds of Examples 1, 9, and 10 were tested against yellow nutsedge in cotton, soybeans, corn and rice; each compound was non-selective with respect to yellow nutsedge in rice. However, markedly high selectivities for yellow nutsedge in cotton, soybeans and corn were shown for each of the compounds in the test; the respective GR15 and GR85 rates for these compounds are shown in Table XII selectivity factors are shown in parenthesis after each crop.

snap beans = assay: as above; conditions: Table VI
Text: as §1, §2
A further guide to the effectiveness of a chemical as a selective herbicide is the "selectivity factor" ("SF") for a herbicide in given crops and weeds. […]

foxtail (spp) = assay: Field pre-emergence selectivity test; conditions: Setaria, 1008 h, 6 weeks, read-out: Percent Inhibition; for inhibition at 560 g/ha: 0.56 Kg/Ha; for inhibition at 1120 g/ha: 1.12 Kg/Ha; for inhibition at 2240 g/ha: 2.24 Kg/Ha; for inhibition at 4480 g/ha: 4.48 Kg/Ha
Method: (§3) The compound of Examples 1 and 2 was also tested in the field to determine its pre-emergence selectivity against foxtail (spp), barnyardgrass, wild proso millet, smartweed, lambsquarters and pigweed in a plurality of crops; the data (representing three replicate runs) are shown in Table VII for both surface application (S.A.) and soil incorporation (PPI, i.e., preplant incorporation) of the herbicide. The seeds were planted in a fine seedbed of silt loam of intermediate moisture. The seeds were planted at a depth of two inches (5.08 cm). First rainfall (0.2"; 0.51 cm) occurred the day following treatment, the second rain (0.25"; […]) two days after treatment; cumulative rainfall 22 days after treatment was 1.8" (4.57 cm). Observations were made 6 weeks after treatment.

rape = assay: Field pre-emergence selectivity test; conditions: 1008 h, 6 weeks, read-out: Percent Inhibition; for inhibition at 560 g/ha: 0.56 Kg/Ha; for inhibition at 1120 g/ha: 1.12 Kg/Ha; for inhibition at 2240 g/ha: 2.24 Kg/Ha; for inhibition at 4480 g/ha: 4.48 Kg/Ha
Method: as §3

Barnyardgrass = assay: Field pre-emergence selectivity test; conditions: Echinochloa crus-galli, 1008 h, 6 weeks, read-out: Percent Inhibition; for inhibition at 560 g/ha: 0.56 Kg/Ha; for inhibition at 1120 g/ha: 1.12 Kg/Ha; for inhibition at 2240 g/ha: 2.24 Kg/Ha; for inhibition at 4480 g/ha: 4.48 Kg/Ha
Method: as §3

Smartweed = assay: Field pre-emergence selectivity test; conditions: 1008 h, 6 weeks, read-out: Percent Inhibition; for inhibition at 560 g/ha: 0.56 Kg/Ha; for inhibition at 2240 g/ha: 2.24 Kg/Ha; for inhibition at 4480 g/ha: 4.48 Kg/Ha
Method: as §3

pigweed = assay: Field pre-emergence selectivity test; conditions: Amaranthus retroflexus, 1008 h, 6 weeks, read-out: Percent Inhibition; for inhibition at 560 g/ha: 0.56 Kg/Ha; for inhibition at 1120 g/ha: 1.12 Kg/Ha
Method: as §3

wild proso millet = assay: Field pre-emergence selectivity test; conditions: 1008 h, 6 weeks, read-out: Percent Inhibition; for inhibition at 560 g/ha: 0.56 Kg/Ha; for inhibition at 1120 g/ha: 1.12 Kg/Ha; for inhibition at 2240 g/ha: 2.24 Kg/Ha; for inhibition at 4480 g/ha: 4.48 Kg/Ha
Method: as §3

Bush Bean = assay: Field pre-emergence selectivity test; conditions: 1008 h, 6 weeks, read-out: Percent Inhibition; for inhibition at 560 g/ha: 0.56 Kg/Ha; for inhibition at 1120 g/ha: 1.12 Kg/Ha; for inhibition at 2240 g/ha: 2.24 Kg/Ha; for inhibition at 4480 g/ha: 4.48 Kg/Ha
Method: as §3

soybeans = assay: Field pre-emergence selectivity test; conditions: Glycine max, 1008 h, 6 weeks, read-out: Percent Inhibition; for inhibition at 560 g/ha: 0.56 Kg/Ha; for inhibition at 1120 g/ha: 1.12 Kg/Ha; for inhibition at 2240 g/ha: 2.24 Kg/Ha; for inhibition at 4480 g/ha: 4.48 Kg/Ha
Method: as §3

Sorghum = assay: Field pre-emergence selectivity test; conditions: 1008 h, 6 weeks, read-out: Percent Inhibition; for inhibition at 560 g/ha: 0.56 Kg/Ha; for inhibition at 1120 g/ha: 1.12 Kg/Ha; for inhibition at 2240 g/ha: 2.24 Kg/Ha; for inhibition at 4480 g/ha: 4.48 Kg/Ha
Method: as §3

CCOCN(C(=O)CCl)c1c(C)cccc1C(F)(F)F [Example 1, N-(ethoxymethyl)-2'-trifluoromethyl-6'-methyl-2-chloroacetanilide]
GR15 (cotton): 2.0 Kg/Ha
GR15 Rate (snap beans): 0.90 Kg/Ha
inhibition at 560 g/ha (foxtail (spp); P.P.I.): 75%
inhibition at 1120 g/ha (foxtail (spp); P.P.I.): 90%
inhibition at 2240 g/ha (foxtail (spp); P.P.I.): 98%
inhibition at 4480 g/ha (foxtail (spp); P.P.I.): 100%
inhibition at 560 g/ha (foxtail (spp); S.A.): 62%
inhibition at 1120 g/ha (foxtail (spp); S.A.): 92%
inhibition at 2240 g/ha (foxtail (spp); S.A.): 93%
inhibition at 4480 g/ha (foxtail (spp); S.A.): 98%
inhibition at 560 g/ha (rape; P.P.I.): 0%
inhibition at 1120 g/ha (rape; P.P.I.): 0%
inhibition at 2240 g/ha (rape; P.P.I.): 15%
inhibition at 4480 g/ha (rape; P.P.I.): 40%
inhibition at 560 g/ha (rape; S.A.): 0%
inhibition at 1120 g/ha (rape; S.A.): 0%
inhibition at 2240 g/ha (rape; S.A.): 5%
inhibition at 4480 g/ha (rape; S.A.): 33%
inhibition at 560 g/ha (Barnyardgrass; P.P.I.): 75%
inhibition at 1120 g/ha (Barnyardgrass; P.P.I.): 93%
inhibition at 2240 g/ha (Barnyardgrass; P.P.I.): 98%
inhibition at 4480 g/ha (Barnyardgrass; P.P.I.): 100%
inhibition at 560 g/ha (Barnyardgrass; S.A.): 63%
inhibition at 1120 g/ha (Barnyardgrass; S.A.): 93%
inhibition at 2240 g/ha (Barnyardgrass; S.A.): 93%
inhibition at 4480 g/ha (Barnyardgrass; S.A.): 98%
inhibition at 560 g/ha (Smartweed; P.P.I.): 20%
inhibition at 2240 g/ha (Smartweed; P.P.I.): 75%
inhibition at 4480 g/ha (Smartweed; P.P.I.): 85%
inhibition at 560 g/ha (Smartweed; S.A.): 0%
inhibition at 1120 g/ha (Smartweed; S.A., 1.12 Kg/Ha): 0%
inhibition at 2240 g/ha (Smartweed; S.A.): 50%
inhibition at 4480 g/ha (Smartweed; S.A.): 90%
inhibition at 560 g/ha (pigweed; P.P.I.): 50%
inhibition at 1120 g/ha (pigweed; P.P.I.): 85%
inhibition at 2240 g/ha (pigweed; P.P.I., 2.24 Kg/Ha): 85%
inhibition at 4480 g/ha (pigweed; P.P.I., 4.48 Kg/Ha): 95%
inhibition at 560 g/ha (pigweed; S.A.): 0%
inhibition at 1120 g/ha (pigweed; S.A.): 0%
inhibition at 560 g/ha (wild proso millet; P.P.I.): 23%
inhibition at 1120 g/ha (wild proso millet; P.P.I.): 58%
inhibition at 2240 g/ha (wild proso millet; P.P.I.): 80%
inhibition at 4480 g/ha (wild proso millet; P.P.I.): 85%
inhibition at 560 g/ha (wild proso millet; S.A.): 63%
inhibition at 1120 g/ha (wild proso millet; S.A.): 83%
inhibition at 2240 g/ha (wild proso millet; S.A.): 95%
inhibition at 4480 g/ha (wild proso millet; S.A.): 97%
inhibition at 560 g/ha (Bush Bean; P.P.I.): 23%
inhibition at 1120 g/ha (Bush Bean; P.P.I.): 10%
inhibition at 2240 g/ha (Bush Bean; P.P.I.): 37%
inhibition at 4480 g/ha (Bush Bean; P.P.I.): 43%
inhibition at 560 g/ha (Bush Bean; S.A.): 0%
inhibition at 1120 g/ha (Bush Bean; S.A.): 8%
inhibition at 2240 g/ha (Bush Bean; S.A.): 20%
inhibition at 4480 g/ha (Bush Bean; S.A.): 32%
inhibition at 560 g/ha (soybeans; P.P.I.): 5%
inhibition at 1120 g/ha (soybeans; P.P.I.): 7%
inhibition at 2240 g/ha (soybeans; P.P.I.): 20%
inhibition at 4480 g/ha (soybeans; P.P.I.): 40%
inhibition at 560 g/ha (soybeans; S.A.): 0%
inhibition at 1120 g/ha (soybeans; S.A.): 5%
inhibition at 2240 g/ha (soybeans; S.A.): 0%
inhibition at 4480 g/ha (soybeans; S.A.): 13%
inhibition at 560 g/ha (Sorghum; P.P.I.): 32%
inhibition at 1120 g/ha (Sorghum; P.P.I.): 53%
inhibition at 2240 g/ha (Sorghum; P.P.I.): 92%
inhibition at 4480 g/ha (Sorghum; P.P.I.): 98%
inhibition at 560 g/ha (Sorghum; S.A.): 0%
inhibition at 1120 g/ha (Sorghum; S.A.): 3%
inhibition at 2240 g/ha (Sorghum; S.A.): 17%
inhibition at 4480 g/ha (Sorghum; S.A.): 77%
